Assays:
Experiment in all cases: relative viability (nuclei count vs DMSO), 5 days (fraction); higher = more cells survive
XMD13-2 + Bortezomib = compound: C1CC1C(=O)NC2=NNC3=C2C=CC(=C3)C4=CC(=CC=C4)C(=O)NC5CC5 [XMD13-2] + CC(C)C[C@H](NC(=O)[C@H](Cc1ccccc1)NC(=O)c1cnccn1)B(O)O [Bortezomib] (partner 0.002 µM)
How it was run: (§1)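 Lung cancer cell lines in 1536-well plates were dosed by pin tool the day after seeding, either with one drug alone or with a fixed anchor-drug dose plus five library-drug doses (not always all listed) in √10 steps. After 5 days, cells were fixed and their nuclei stained in one step (final 0.05% Triton X-100, 1% formaldehyde, 1 ug/ml Hoechst), then counted on 4× images. Relative viability is the nuclei count in treated wells divided by that in vehicle wells. Values are medians of duplicate plates.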

XMD13-2 + Pemetrexed = compound: C1CC1C(=O)NC2=NNC3=C2C=CC(=C3)C4=CC(=CC=C4)C(=O)NC5CC5 [XMD13-2] + Nc1nc2[nH]cc(CCc3ccc(C(=O)N[C@@H](CCC(=O)O)C(=O)O)cc3)c2c(=O)[nH]1 [Pemetrexed] (partner 0.2 µM)
How it was run: as §1

ALW-II-49-7 + Alpelisib = compound: Cc1ccc(C(=O)Nc2cccc(C(F)(F)F)c2)cc1Nc1cncc(C(N)=O)c1 [ALW-II-49-7] + Cc1nc(NC(=O)N2CCC[C@H]2C(N)=O)sc1-c1ccnc(C(C)(C)C(F)(F)F)c1 [Alpelisib] (partner 2 µM)
How it was run: as §1

Dasatinib + Luminespib = compound: Cc1nc(Nc2ncc(C(=O)Nc3c(C)cccc3Cl)s2)cc(N2CCN(CCO)CC2)n1 [Dasatinib] + CCNC(=O)c1noc(-c2cc(C(C)C)c(O)cc2O)c1-c1ccc(CN2CCOCC2)cc1 [Luminespib] (partner 0.01 µM)
How it was run: as §1

| Cell Line | relative viability (XMD13-2 + Bortezomib; first compound 0.05 µM) | relative viability (XMD13-2 + Bortezomib; first compound 0.1581 µM) | relative viability (XMD13-2 + Bortezomib; first compound 0.5 µM) | relative viability (XMD13-2 + Bortezomib; first compound 1.581 µM) | relative viability (XMD13-2 + Bortezomib; first compound 5 µM) | relative viability (XMD13-2 + Pemetrexed; first compound 0.05 µM) | relative viability (XMD13-2 + Pemetrexed; first compound 0.1581 µM) | relative viability (XMD13-2 + Pemetrexed; first compound 0.5 µM) | relative viability (XMD13-2 + Pemetrexed; first compound 1.581 µM) | relative viability (XMD13-2 + Pemetrexed; first compound 5 µM) | relative viability (ALW-II-49-7 + Alpelisib; first compound 0.08 µM) | relative viability (ALW-II-49-7 + Alpelisib; first compound 0.253 µM) | relative viability (ALW-II-49-7 + Alpelisib; first compound 0.8 µM) | relative viability (ALW-II-49-7 + Alpelisib; first compound 2.53 µM) | relative viability (ALW-II-49-7 + Alpelisib; first compound 8 µM) | relative viability (Dasatinib + Luminespib; first compound 0.005 µM) | relative viability (Dasatinib + Luminespib; first compound 0.01581 µM) | relative viability (Dasatinib + Luminespib; first compound 0.05 µM) | relative viability (Dasatinib + Luminespib; first compound 0.1581 µM) | relative viability (Dasatinib + Luminespib; first compound 0.5 µM) |
| --- | --- | --- | --- | --- | --- | --- | --- | --- | --- | --- | --- | --- | --- | --- | --- | --- | --- | --- | --- | --- |
| PC-14 | 0.903 | 0.888 | 0.828 | 0.806 | 0.916 | 0.14 | 0.131 | 0.118 | 0.148 | 0.13 | 0.833 | 0.541 | 0.838 | 0.911 | 0.828 | 0.237 | 0.113 | 0.152 | 0.158 | 0.105 |
| BEN | 1.2 | 0.83 | 0.847 | 0.712 | 0.801 | 0.876 | 0.858 | 0.734 | 0.641 | 0.803 | 0.993 | 0.93 | 0.936 | – | 1.17 | 0.439 | 0.547 | 0.266 | 0.2 | 0.269 |
| EPLC-272H | 0.747 | 0.886 | 0.855 | 0.856 | 0.871 | 0.345 | 0.31 | 0.247 | 0.254 | 0.168 | 0.92 | 0.879 | 1.02 | 1.08 | 1.06 | 0.679 | 0.392 | 0.512 | 0.121 | 0.111 |
| HCC-827 | 1.05 | 1.02 | 1.04 | 0.957 | 1.04 | 0.264 | 0.27 | 0.211 | 0.272 | 0.261 | 0.949 | 1.08 | 0.945 | 0.94 | 0.897 | 0.672 | 0.409 | 0.335 | 0.127 | 0.123 |

Reference: the supplement of paper PMC10307832
